The supplement of paper PMC11208160
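Further: IS621 bridge recombinase in Escherichia coli cells against a fixed T5 target plasmid.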

Assay: recombinant UMI read abundance after kanamycin selection (control-corrected) (log10(CPM+1)); higher = more efficient recombination; extreme values may be limits of the assay; sequences stand for … in AGTGCAGAGAAAATCGGCCAGTTTTCTCTGCCTGCAGTCCGCATGCCGTGGGACCCCTTGGGTTCTAACCTGTTGCCTAGATTTATGCAGCGGACTGCCTTTCTCCCAAAGTGATAAACCGG…AGGTTGGTTTCACT; site = the 11-nt donor
Outline: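 Values, expressed as log10(CPM+1), derive from recombinant UMI counts converted to CPM, averaged across replicates and scaled by control-derived factors. Plating was with IPTG (0.07 mM) plus kanamycin or unselected, two replicates each. The screen pooled donor and donor-binding-loop pairs for the IS621 bridge recombinase in Escherichia coli.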
For “TCCACCGCATGGACCGGTTTTCCCGGTAATCCGTATTTGGG (site TCCACCGCTCG)”, the “recombinant UMI read abundance (log10)” value was 0.0231.
In the case of “TCCACCGCATGGACCGGTTTTCCCGGTAATCCGTATTTGGG (site TCCACCGCTCT)”, the “recombinant UMI read abundance (log10)” value is reported as 0.0189.
With “TCCATCGCATGGACCGGTTTTCCCGGTAATCCGTATTTGCG (site TCCAACGCTCG)” the “recombinant UMI read abundance (log10)” value was 0.
In the case of “TCCATCGCATGGACCGGTTTTCCCGGTAATCCGTATTTGCG (site TCCACCGCTCG)”, the “recombinant UMI read abundance (log10)” value is reported as 0.0339.
In the case of “TCCATCGCATGGACCGGTTTTCCCGGTAATCCGTATTTGCG (site TCCAGCGCTCG)”, the “recombinant UMI read abundance (log10)” value is reported as 0.047.
With “TCCATCGCATGGACCGGTTTTCCCGGTAATCCGTATTTGCG (site TCCATCGCTCG)” the “recombinant UMI read abundance (log10)” value was 0.00801.
With “TCCCAATCATGGACCGGTTTTCCCGGTAATCCGTATTTGTT (site TCCCAATCTAA)” the “recombinant UMI read abundance (log10)” value was 0.00639.
For “TCCCACCCATGGACCGGTTTTCCCGGTAATCCGTATTTGCA (site TCCCACCCTTG)”, the “recombinant UMI read abundance (log10)” value was 0.
With “TCCCATACATGGACCGGTTTTCCCGGTAATCCGTATTTGGC (site TCCCATACTGC)” the “recombinant UMI read abundance (log10)” value was 0.
With “TCCCCCGCATGGACCGGTTTTCCCGGTAATCCGTATTTGCG (site TCCACCGCTCG)” the “recombinant UMI read abundance (log10)” value was 0.00501.
In the case of “TCCCCCGCATGGACCGGTTTTCCCGGTAATCCGTATTTGCG (site TCCCCCGCTCG)”, the “recombinant UMI read abundance (log10)” value is reported as 0.0127.
For “TCCCCCGCATGGACCGGTTTTCCCGGTAATCCGTATTTGCG (site TCCGCCGCTCG)”, the “recombinant UMI read abundance (log10)” value was 0.0064.
With “TCCCCCGCATGGACCGGTTTTCCCGGTAATCCGTATTTGCG (site TCCTCCGCTCG)” the “recombinant UMI read abundance (log10)” value was 0.00786.
For “TCCCCTACATGGACCGGTTTTCCCGGTAATCCGTATTTGCC (site TCCCCTACTGG)”, the “recombinant UMI read abundance (log10)” value was 0.
For “TCCCTTACATGGACCGGTTTTCCCGGTAATCCGTATTTGTA (site TCCCTTACTTA)”, the “recombinant UMI read abundance (log10)” value was 0.0182.
In the case of “TCCCTTGCATGGACCGGTTTTCCCGGTAATCCGTATTTGGT (site TCCCTTGCTAC)”, the “recombinant UMI read abundance (log10)” value is reported as 0.
With “TCCGACGCATGGACCGGTTTTCCCGGTAATCCGTATTTGCT (site TCCGACGCTAG)” the “recombinant UMI read abundance (log10)” value was 0.968.
For “TCCGGAACATGGACCGGTTTTCCCGGTAATCCGTATTTGCT (site TCCGGAACTAG)”, the “recombinant UMI read abundance (log10)” value was 0.
In the case of “TCCGGGTCATGGACCGGTTTTCCCGGTAATCCGTATTTGAC (site GGAATCGCTAG)”, the “recombinant UMI read abundance (log10)” value is reported as 0.
In the case of “TCCGGTCCATGGACCGGTTTTCCCGGTAATCCGTATTTGCA (site ACCGGTCCTTG)”, the “recombinant UMI read abundance (log10)” value is reported as 0.
With “TCCGGTCCATGGACCGGTTTTCCCGGTAATCCGTATTTGCA (site CCCGGTCCTTG)” the “recombinant UMI read abundance (log10)” value was 0.
In the case of “TCCGGTCCATGGACCGGTTTTCCCGGTAATCCGTATTTGCA (site GCCGGTCCTTG)”, the “recombinant UMI read abundance (log10)” value is reported as 0.
In the case of “TCCGGTCCATGGACCGGTTTTCCCGGTAATCCGTATTTGCA (site TCCGGTCCTTG)”, the “recombinant UMI read abundance (log10)” value is reported as 0.
In the case of “TCCTACGCATGGACCGGTTTTCCCGGTAATCCGTATTTGCC (site TCCTACGCTGG)”, the “recombinant UMI read abundance (log10)” value is reported as 0.
In the case of “TCCTCCACATGGACCGGTTTTCCCGGTAATCCGTATTTGGT (site TCCTCCACTAC)”, the “recombinant UMI read abundance (log10)” value is reported as 0.0263.
With “TCCTCGCCATGGACCGGTTTTCCCGGTAATCCGTATTTGTT (site TCCTCGCCTAA)” the “recombinant UMI read abundance (log10)” value was 0.0142.
In the case of “TCCTGAACATGGACCGGTTTTCCCGGTAATCCGTATTTGCT (site TCCTGAACTAG)”, the “recombinant UMI read abundance (log10)” value is reported as 0.
With “TCCTGGCCATGGACCGGTTTTCCCGGTAATCCGTATTTGTA (site TCCTGGCCTTA)” the “recombinant UMI read abundance (log10)” value was 0.0229.
In the case of “TCCTTACCATGGACCGGTTTTCCCGGTAATCCGTATTTGGA (site TCCTTACCTTC)”, the “recombinant UMI read abundance (log10)” value is reported as 0.00485.
In the case of “TCCTTCGCATGGACCGGTTTTCCCGGTAATCCGTATTTGCT (site GATCCACCTTC)”, the “recombinant UMI read abundance (log10)” value is reported as 0.0105.
With “TCGAAAACATGGACCGGTTTTCCCGGTAATCCGTATTTGCT (site ACGAAAACTAG)” the “recombinant UMI read abundance (log10)” value was 0.
In the case of “TCGAAAACATGGACCGGTTTTCCCGGTAATCCGTATTTGCT (site CCGAAAACTAG)”, the “recombinant UMI read abundance (log10)” value is reported as 0.679.
In the case of “TCGAAAACATGGACCGGTTTTCCCGGTAATCCGTATTTGCT (site GCGAAAACTAG)”, the “recombinant UMI read abundance (log10)” value is reported as 0.
In the case of “TCGAAAACATGGACCGGTTTTCCCGGTAATCCGTATTTGCT (site TCGAAAACTAG)”, the “recombinant UMI read abundance (log10)” value is reported as 0.
For “TCGAAGTCATGGACCGGTTTTCCCGGTAATCCGTATTTGCG (site TCGAAGTCTCG)”, the “recombinant UMI read abundance (log10)” value was 1.9.
For “TCGACGGCATGGACCGGTTTTCCCGGTAATCCGTATTTGAC (site TCGACGGCTGT)”, the “recombinant UMI read abundance (log10)” value was 0.0562.
With “TCGACGGCATGGACCGGTTTTCCCGGTAATCCGTATTTGTG (site TCGACGGCTCA)” the “recombinant UMI read abundance (log10)” value was 0.539.
In the case of “TCGATAGCATGGACCGGTTTTCCCGGTAATCCGTATTTGGG (site TCGATAGCTCC)”, the “recombinant UMI read abundance (log10)” value is reported as 0.00329.
